Data taken from ChEMBL document CHEMBL1255286, “In Vitro activity of the new azole isavuconazole (BAL4815) compared with six other antifungal agents against 162 Cryptococcus neoformans isolates from Cuba” (2008).
Converted amounts (≈) assume the structure as drawn.

Columns and labels:
Cryptococcus neoformans [1] = assay: Antimicrobial activity against Cryptococcus neoformans var. grubii by broth microdilution method; assay type: functional
Cryptococcus neoformans [2] = assay: Antimicrobial activity against Cryptococcus neoformans var. grubii clinical isolate by broth microdilution method; assay type: functional
Cryptococcus neoformans [3] = assay: Antimicrobial activity against Cryptococcus neoformans var. grubii obtained from AIDS patient by broth microdilution method; assay type: functional
[4] = system: Cryptococcus gattii species complex; assay: Antimicrobial activity against Cryptococcus gattii by broth microdilution method; assay type: functional, Cryptococcus bacillisporus
Naganishia albida = assay: Antimicrobial activity against Cryptococcus albidus by broth microdilution method; assay type: functional
[5] = system: Cryptococcus albidosimilis; assay: Antimicrobial activity against Cryptococcus albidosimilis by broth microdilution method; assay type: functional; details: Naganishia albidosimilis
Cryptococcus neoformans [6] = assay: Antimicrobial activity against Cryptococcus neoformans var. grubii obtained from non-AIDS patient by broth microdilution method; assay type: functional

| SMILES | MIC50 (Cryptococcus neoformans [1]) [µg/mL] | MIC90 (Cryptococcus neoformans [1]) [µg/mL] | MIC50 (Cryptococcus neoformans [2]) [µg/mL] | MIC90 (Cryptococcus neoformans [2]) [µg/mL] | MIC50 (Cryptococcus neoformans [3]) [µg/mL] | MIC90 (Cryptococcus neoformans [3]) [µg/mL] | MIC50 [4] [µg/mL] | MIC90 [4] [µg/mL] | MIC50 (Naganishia albida) [µg/mL] | MIC90 (Naganishia albida) [µg/mL] | MIC50 [5] [µg/mL] | MIC90 [5] [µg/mL] | MIC50 (Cryptococcus neoformans [6]) [µg/mL] | MIC90 (Cryptococcus neoformans [6]) [µg/mL] | MIC (Cryptococcus neoformans [1]) [µg/mL] | MIC [4] [µg/mL] | MIC (Naganishia albida) [µg/mL] | MIC [5] [µg/mL] |
| --- | --- | --- | --- | --- | --- | --- | --- | --- | --- | --- | --- | --- | --- | --- | --- | --- | --- | --- |
| C[C@@H]1[C@H](O)[C@@H](C)/C=C/C=C/C=C/C=C/C=C/C=C/C=C/[C@H](O[C@@H]2O[C@H](C)[C@@H](O)[C@H](N)[C@@H]2O)C[C@@H]2O[C@](O)(C[C@@H](O)C[C@@H](O)[C@H](O)CC[C@@H](O)C[C@@H](O)CC(=O)O[C@H]1C)C[C@H](O)[C@H]2C(=O)O [AMPHOTERICIN B] | 0.25 (≈ 0.271 µM) | 0.5 (≈ 0.541 µM) | 0.25 (≈ 0.271 µM) | 0.25 (≈ 0.271 µM) | 0.25 (≈ 0.271 µM) | 0.25 (≈ 0.271 µM) | 0.25 (≈ 0.271 µM) | 0.5 (≈ 0.541 µM) | 0.25 (≈ 0.271 µM) | 0.5 (≈ 0.541 µM) | 0.25 (≈ 0.271 µM) | 0.5 (≈ 0.541 µM) |  |  |  |  |  |  |
| OC(Cn1cncn1)(Cn1cncn1)c1ccc(F)cc1F [FLUCONAZOLE] | 4 (≈ 13.1 µM) | 8 (≈ 26.1 µM) | 2 (≈ 6.53 µM) | 4 (≈ 13.1 µM) | 2 (≈ 6.53 µM) | 2 (≈ 6.53 µM) | 4 (≈ 13.1 µM) | 8 (≈ 26.1 µM) | 4 (≈ 13.1 µM) | 8 (≈ 26.1 µM) | 4 (≈ 13.1 µM) | 8 (≈ 26.1 µM) |  |  |  |  |  |  |
| Nc1nc(=O)[nH]cc1F [FLUCYTOSINE] | 4 (≈ 31 µM) | 8 (≈ 62 µM) | 4 (≈ 31 µM) | 8 (≈ 62 µM) | 4 (≈ 31 µM) | 8 (≈ 62 µM) | 4 (≈ 31 µM) | 8 (≈ 62 µM) | 4 (≈ 31 µM) | 8 (≈ 62 µM) | 4 (≈ 31 µM) | 8 (≈ 62 µM) | 2 (≈ 15.5 µM) | 4 (≈ 31 µM) |  |  |  |  |
| C[C@@H](c1nc(-c2ccc(C#N)cc2)cs1)[C@](O)(Cn1cncn1)c1cc(F)ccc1F [ISAVUCONAZOLE] | 0.004 (≈ 0.00914 µM) | 0.016 (≈ 0.0366 µM) | 0.004 (≈ 0.00914 µM) | 0.016 (≈ 0.0366 µM) | 0.008 (≈ 0.0183 µM) | 0.016 (≈ 0.0366 µM) | 0.004 (≈ 0.00914 µM) | 0.016 (≈ 0.0366 µM) | 0.004 (≈ 0.00914 µM) | 0.016 (≈ 0.0366 µM) | 0.004 (≈ 0.00914 µM) | 0.016 (≈ 0.0366 µM) | 0.008 (≈ 0.0183 µM) | 0.031 (≈ 0.0709 µM) |  |  |  |  |
| CCC(C)n1ncn(-c2ccc(N3CCN(c4ccc(OCC5COC(Cn6cncn6)(c6ccc(Cl)cc6Cl)O5)cc4)CC3)cc2)c1=O (stereo not drawn) [ITRACONAZOLE] | 0.063 (≈ 0.0893 µM) | 0.25 (≈ 0.354 µM) | 0.031 (≈ 0.0439 µM) | 0.25 (≈ 0.354 µM) | 0.031 (≈ 0.0439 µM) | 0.125 (≈ 0.177 µM) | 0.063 (≈ 0.0893 µM) | 0.25 (≈ 0.354 µM) | 0.063 (≈ 0.0893 µM) | 0.25 (≈ 0.354 µM) | 0.063 (≈ 0.0893 µM) | 0.25 (≈ 0.354 µM) | 0.031 (≈ 0.0439 µM) | 0.063 (≈ 0.0893 µM) |  |  |  |  |
| CC[C@@H]([C@H](C)O)n1ncn(-c2ccc(N3CCN(c4ccc(OC[C@@H]5CO[C@@](Cn6cncn6)(c6ccc(F)cc6F)C5)cc4)CC3)cc2)c1=O [POSACONAZOLE] | 0.31 (≈ 0.442 µM) | 0.63 (≈ 0.899 µM) | 0.004 (≈ 0.00571 µM) | 0.016 (≈ 0.0228 µM) | 0.031 (≈ 0.0442 µM) | 0.125 (≈ 0.178 µM) | 0.31 (≈ 0.442 µM) | 0.63 (≈ 0.899 µM) | 0.31 (≈ 0.442 µM) | 0.63 (≈ 0.899 µM) | 0.31 (≈ 0.442 µM) | 0.63 (≈ 0.899 µM) | 0.063 (≈ 0.0899 µM) | 0.125 (≈ 0.178 µM) | 0.016 (≈ 0.0228 µM) | 0.016 (≈ 0.0228 µM) | 0.016 (≈ 0.0228 µM) | 0.016 (≈ 0.0228 µM) |
| C[C@@H](c1ncncc1F)[C@](O)(Cn1cncn1)c1ccc(F)cc1F [VORICONAZOLE] | 0.063 (≈ 0.18 µM) | 0.25 (≈ 0.716 µM) | 0.031 (≈ 0.0887 µM) | 0.125 (≈ 0.358 µM) | 0.031 (≈ 0.0887 µM) | 0.125 (≈ 0.358 µM) | 0.063 (≈ 0.18 µM) | 0.25 (≈ 0.716 µM) | 0.063 (≈ 0.18 µM) | 0.25 (≈ 0.716 µM) | 0.063 (≈ 0.18 µM) | 0.25 (≈ 0.716 µM) | 0.063 (≈ 0.18 µM) | 0.063 (≈ 0.18 µM) |  |  |  |  |
